Measurements reported in patent US20180303101A1, “METHOD OF IMPROVING GRASS QUALITY” (priority 2004, published 2018).

Legend:
Assay type in all cases: in vivo
[1] = tested on: Penncross creeping bentgrass; test: Shoot growth rate in canopy height at high temperature treatment (Example 1); conditions: plants with and without pretreatment
From the text: (§1) The following test methods were used to compare the effectiveness of a phthalocyanine composition according to the invention with known compositions. The following compositions were used in the experiments: Pigment Green 7 obtained from Sun Chemical Corporation as the water-dispersible product SUN T-64-1660 (containing 45 to 55 wt. % of Pigment Green 7) was used alone. A mixture of Pigment Green 7 and fosetyl-al was used as the commercially available product Chipco® Signature™ fungicide from Bayer Environmental Science, Montvale, N.J. The compound fosetyl-al was used as Chipco® Aliette® WDG fungicide available from Bayer Environmental Science, Montvale N.J.
(§2) Seeds of “Penncross” creeping bentgrass were sown in polyvinyl chloride (PVC) tubes (10 cm in diameter and 20 cm in length) filled with coarse sand. Plants were kept in a growth chamber for 90 days before treatment stated to allow root and canopy establishment. The daily temperature in the growth chamber was 20/16° C., the photosynthetic photon flux density was 400 μmol m−2 s−1, and the photoperiod was 12 hours/day. Turf was mowed twice weekly at 4 mm with scissors, irrigated every other day until there was free drainage from the bottom of tubes, and fertilized weekly with 40 ml full-strength Hoagland's nutrient solution (Hoagland and Arnon, 1950). Insecticide was applied to kill whitefly when necessary. […]

[2] = tested on: Penncross creeping bentgrass; test: Root mortality at high temperature treatment (Example 1); conditions: plants with or without pretreatment
From the text: as §1
Seeds of “Penncross” creeping bentgrass were sown in polyvinyl chloride (PVC) tubes (10 cm in diameter and 20 cm in length) filled with coarse sand. Plants were kept in a growth chamber for 90 days before treatment stated to allow root and canopy establishment. The daily temperature in the growth chamber was 20/16° C., the photosynthetic photon flux density was 400 μmol m−2 s−1, and the photoperiod was 12 hours/day. […]
Root mortality was measured using the method of Knievel (1973) with modification.
Samples of 0.5 g clean fresh roots were incubated with 10 mL 0.6% 2,3,5-triphenyltetrazolium chloride (in 0.05 M phosphate buffer, pH 7.4) for 24 hours in the dark at 30° C. […] Absorbance at 490 nm was used to determine root mortality.

[3] = tested on: Penncross creeping bentgrass; test: Turf quality visual rating at high temperature treatment (Example 1); conditions: high temperature 35/30° C., biweekly foliar application
From the text: as §1, §2

[4] = tested on: Penncross creeping bentgrass; test: Influence of foliar applied phthalocyanine pigment on creeping bentgrass photosynthesis (Example 9)
Procedure: Studies carried out as a follow-up to Example 1 were conducted in 2005 to determine the influence of foliar applied phthalocyanine pigment on creeping bentgrass photosynthesis.
“Penncross” creeping bentgrass plants were grown in a growth chamber on a sand soil in PVC tubes (10 cm in diameter) maintained at 20° C. Plants were maintained at a canopy height of approximately 5 cm and a nutrient solution was applied weekly to maintain adequate fertility. Four plants were treated with Pigment Green 7 at a rate of 6.92 g/1000 sq. ft. (0.74 kg/ha) (with 0.6% Tween 20 being added to keep the pigment on the leaves for better absorption) and four plants were left untreated to serve as the controls (being sprayed with water only). Photochemical efficiency, chlorophyll content, and single leaf net photosynthesis were measured at one, three, seven, and fourteen days after application. Different light intensities of 1500, 750, 500, 250, 150, 50, and 0 μmol m−2 s−1 of photosynthetically active radiation (PAR, 400-700 nm) were generated inside the leaf chamber by an LED light source to generate a light response curve. Net photosynthesis was measured as the rate of CO2 uptake φmol m−2s−1). […] Photosynthesis was higher from the first day after application and all subsequent sampling dates. […] However at intensities of from 50 to 1500 μmol photons m−2 s−1 treated plants were more efficient in utilizing the constant amount of light produced in the leaf chamber.

Corn = test: Glasshouse study, soil drench applications of pigment on corn growth and photosynthesis (Example 10); conditions: for Chlorophyl: CM1000 meter readings; for Total height (avg, cm): soil to youngest fully expanded leaf tip; for Distance between collars (avg, cm): two top collars; for Net photosynthesis: youngest fully collared leaf
Procedure: A glasshouse study was conducted to determine the effect of soil drench applications of phthalocyanine pigment on corn growth and photosynthesis.
Corn was grown from seed in 6 inch (15 cm) pots in a potting soil mix. Pigment Green 7 was diluted in water in the four amounts per gallon (3.8 liter) of water indicated in the Table and applied directly to the soil. Treatments were initiated in March when corn was at the three leaf stage. Approximately 250 ml of the aqueous pigment mixture was applied to the soil on day 0 and day 6. On day 21 plants were placed in trays containing the pigment Water was maintained in the trays as needed to replenished evapotranspiration.
Net photosynthesis of the youngest fully collared leaf (i.e., leaf 7) was measured using a LiCor 6400 instrument as μmol m−2s−1 of CO2. Leaf chlorophyll measurements were made using a CM1000 leaf […] meter (Spectrum Technologies). Plant height, stem diameter, and leaf width were also measured at the end of the conclusion of the study.

[5] = 20° C., 6.92 g/1000 sq. ft. with 0.6% Tween 20, 1, 3, 7, 14 days after application

Pigment Green 7
Shoot growth rate in canopy height [1]: higher with application of Signature fungicide and Pigment Green 7 than with application of Aliette fungicide and water
Root mortality [2]: lower root mortality than application of Signature fungicide and Aliette fungicide
Turf quality (visual, scale 0 to 9) ([3]; plants with pretreatment (sprayed 4 weeks before heat)): highest
Turf quality (visual, scale 0 to 9) ([3]; plants without pretreatment): higher turf quality than applications of Signature fungicide, Aliette fungicide, and water
Light compensation point ([4]; 6.92 g/1000 sq. ft. foliar application): unaltered by treatment
Photochemical efficiency (Fv/Fm), treated versus control plants [4, 5]: No differences
Total chlorophyll per gram of tissue, treated versus control plants [4, 5]: no statistically significant differences
Single leaf net photosynthesis (rate of CO2 uptake), treated versus control plants ([4]; all light intensities greater than 50 μmol photons m−2 s−1, 6.92 g/1000 sq. ft., from first day and all subsequent sampling dates): higher for treated plants compared to controls
Stability after foliar application (from higher net photosynthesis on every date) ([4]; on bentgrass leaves, 6.92 g/1000 sq. ft.): stable for at least fourteen days after foliar application
Height soil to collar (avg, cm) (Corn; pigment concentration 1 g/gal): 58 cm
Leaf width (avg, cm) (Corn; pigment concentration 1 g/gal): 5.2 cm
Stem diameter (avg, cm) (Corn; pigment concentration 1 g/gal): 1.04 cm
Chlorophyl (Corn; pigment concentration 1 g/gal): 141
Total height (avg, cm) (Corn; pigment concentration 1 g/gal): 145 cm
Distance between collars (avg, cm) (Corn; pigment concentration 1 g/gal): 4.9 cm
Net photosynthesis (Corn; pigment concentration 1 g/gal): 13.0 μmol m−2s−1 of CO2
Height soil to collar (avg, cm) (Corn; pigment concentration 8 g/gal): 59 cm
Leaf width (avg, cm) (Corn; pigment concentration 8 g/gal): 5.6 cm
Stem diameter (avg, cm) (Corn; pigment concentration 8 g/gal): 0.99 cm
Chlorophyl (Corn; pigment concentration 8 g/gal): 122
Total height (avg, cm) (Corn; pigment concentration 8 g/gal): 148 cm
Distance between collars (avg, cm) (Corn; pigment concentration 8 g/gal): 5.5 cm
Net photosynthesis (Corn; pigment concentration 8 g/gal): 12.8 μmol m−2s−1 of CO2
Height soil to collar (avg, cm) (Corn; pigment concentration 16 g/gal): 55 cm
Leaf width (avg, cm) (Corn; pigment concentration 16 g/gal): 5.2 cm
Stem diameter (avg, cm) (Corn; pigment concentration 16 g/gal): 1.01 cm
Chlorophyl (Corn; pigment concentration 16 g/gal): 115
Total height (avg, cm) (Corn; pigment concentration 16 g/gal): 137 cm
Distance between collars (avg, cm) (Corn; pigment concentration 16 g/gal): 5.7 cm
Net photosynthesis (Corn; pigment concentration 16 g/gal): 13.6 μmol m−2s−1 of CO2
Height soil to collar (avg, cm) (Corn; pigment concentration 32 g/gal): 54 cm
Leaf width (avg, cm) (Corn; pigment concentration 32 g/gal): 5.6 cm
Stem diameter (avg, cm) (Corn; pigment concentration 32 g/gal): 1.00 cm
Chlorophyl (Corn; pigment concentration 32 g/gal): 132
Total height (avg, cm) (Corn; pigment concentration 32 g/gal): 132 cm
Distance between collars (avg, cm) (Corn; pigment concentration 32 g/gal): 6.0 cm
Net photosynthesis (Corn; pigment concentration 32 g/gal): 13.3 μmol m−2s−1 of CO2
